Laboratory results published in patent US20070060573A1, “Acyltryptophanols” (priority 2005, published 2007).

Molecular target: T1, human FSH receptor (Homo sapiens, UniProt P23945)
T1 construct: expressed in transfected cells; host or cells: CHO cells (hFSHR clone 16)
T1 sequence (P23945 18-695): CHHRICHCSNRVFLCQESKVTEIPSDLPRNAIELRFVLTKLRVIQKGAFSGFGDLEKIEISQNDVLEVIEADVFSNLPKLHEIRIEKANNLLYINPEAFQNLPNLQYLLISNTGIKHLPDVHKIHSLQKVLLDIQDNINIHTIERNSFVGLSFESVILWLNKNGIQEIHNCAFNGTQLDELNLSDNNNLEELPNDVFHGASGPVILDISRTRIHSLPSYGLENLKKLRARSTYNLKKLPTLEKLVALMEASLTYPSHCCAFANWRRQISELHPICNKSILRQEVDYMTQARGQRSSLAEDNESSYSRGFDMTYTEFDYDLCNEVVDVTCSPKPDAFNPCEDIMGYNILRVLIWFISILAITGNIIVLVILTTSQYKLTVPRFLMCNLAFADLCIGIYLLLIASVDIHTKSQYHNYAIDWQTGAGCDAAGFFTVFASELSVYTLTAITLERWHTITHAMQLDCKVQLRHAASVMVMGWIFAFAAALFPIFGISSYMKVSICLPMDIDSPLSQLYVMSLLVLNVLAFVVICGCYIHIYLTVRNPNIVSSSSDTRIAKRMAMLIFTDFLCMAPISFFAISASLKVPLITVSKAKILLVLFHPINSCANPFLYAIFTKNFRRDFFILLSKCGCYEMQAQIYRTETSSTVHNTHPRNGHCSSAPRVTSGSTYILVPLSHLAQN
Experiment: HTRF assay for measuring cAMP in cells, FSH-antagonistic effect (in the presence of hFSH)
Assay type: cell-based
Conditions: hFSHR clone 16 cells (CHO cells stably transfected with the human FSH receptor), in the presence of 1e-9 mol/l hFSH, 37° C. for 2 h
Excerpt: […]

Row | Structure (SMILES) | IC50
1 | COc1cc(-c2cc(C(=O)N[C@@H](CO)Cc3c[nH]c4ccccc34)c3nc[nH]c3c2)cc(OC)c1OC [Example 361, 6-(3,4,5-Trimethoxyphenyl)-1H-benzoimidazole-4-carboxylic acid [(R)-2-hydroxy-1-(1H-indol-3-ylmethyl)ethyl]amide] | 4 µM
2 | COc1ccc2nc(-c3ccc(OC)c(F)c3)nc(C(=O)N[C@@H](CO)Cc3c[nH]c4ccccc34)c2c1 [Example 368, 2-(3-Fluoro-4-methoxyphenyl)-6-methoxyquinazoline-4-carboxylic acid [(R)-2-hydroxy-1-(1H-indol-3-ylmethyl)ethyl]amide] | 2.5 µM
3 | COc1cc(-c2cc(C#CCO)cc(C(=O)N[C@@H](CO)Cc3c[nH]c4ccccc34)c2)cc(OC)c1OC [Example 379, 5-(3-Hydroxyprop-1-ynyl)-3′,4′,5′-trimethoxybiphenyl-3-carboxylic acid [(R)-1-hydroxy-methyl-2-(1H-indol-3-yl)ethyl]amide] | 4.5 µM
4 | COCCCc1ccc2nc(-c3cc(OC)c(OC)c(OC)c3)cc(C(=O)N[C@@H](CO)Cc3c[nH]c4ccccc34)c2c1 [Example 392, 6-(3-Methoxypropyl)-2-(3,4,5-trimethoxyphenyl) quinoline-4-carboxylic acid [(R)-1-hydroxy-methyl-2-(1H-indol-3-yl)ethyl]amide] | 1.5 µM
5 | O=C(N[C@@H](CO)Cc1c[nH]c2ccccc12)c1cc(-c2ccc3c(c2)OCO3)ccc1OC1CCCC1 [Example 418, 5-Benzo[1,3]dioxol-5-yl-2-cyclopentyloxy-N-[(R)-1-hydroxymethyl-2-(1H-indol-3-yl)ethyl]benzamide] | 0.3 µM
6 | CCOc1ccc(-c2cccc(-c3ccccc3)c2)cc1C(=O)NC(CO)Cc1c[nH]c2ccccc12 (centres unmarked) [Example 430, 4-Ethoxy-[1,1′; 3′,1″]terphenyl-3-carboxylic acid [1-hydroxymethyl-2-(1H-indol-3-yl)ethyl]amide] | 0.4 µM
7 | CCOc1ccc(-c2ccc(S(=O)(=O)CC)cc2)cc1C(=O)N[C@@H](CO)Cc1c[nH]c2ccccc12 [Example 483, 4-Ethanesulphonyl-4-ethoxybiphenyl-3-carboxylic [(R)-2-hydroxy-1-(1H-indol-3-ylmethyl)ethyl]amide] | 1 µM

More lines, in order of falling IC50, values ahead:

Row | IC50 | Structure (SMILES)
8 | 8 µM | COc1ccc2nc(-c3cc(OC)c(OC)c(OC)c3)cc(C(=O)N[C@H](Cc3c[nH]c4ccccc34)C(C)(C)O)c2c1 [Example 373, 6-Methoxy-2-(3,4,5-trimethoxyphenyl)quinoline-4-carboxylic acid [(R)-2-hydroxy-1-(1H-indol-3-ylmethyl)-2-methylpropyl]amide]
9 | 3.5 µM | COc1ccc(-c2cc(CCCO)cc(C(=O)N[C@@H](CO)Cc3c[nH]c4ccccc34)c2)cc1OC [Example 396, 5-(3-Hydroxypropyl)-3′,4′-dimethoxybiphenyl-3-carboxylic acid [(R)-1-hydroxymethyl-2-(1H-indol-3-yl)ethyl]amide]
10 | 0.4 µM | COc1cc(-c2cc(/C=C\CCCO)cc(C(=O)N[C@@H](CO)Cc3c[nH]c4ccccc34)c2)cc(OC)c1OC [Example 388, 5-((Z)-5-Hydroxypent-1-enyl)-3′,4′,5′-trimethoxybiphenyl-3-carboxylic acid [(R)-1-hydroxy-methyl-2-(1H-indol-3-yl)ethyl]amide]
11 | 0.1 µM | COc1ccc(-c2cccc(C(=O)N[C@@H](CO)Cc3cn(CCCCC#N)c4ccccc34)c2)cc1F [Example 403, N-[(R)-2-[1-(4-Cyanobutyl)-1H-indol-3-yl]-1-(hydroxymethyl)ethyl]-3′-fluoro-4′-methoxy[1,1′-biphenyl]-3-carboxamide]
